Reference: US20260191819A1, “COMPOSITION FOR THE TREATMENT OF THE HUMAN PAPILLOMAVIRUS INFECTION (HPV)” (LO.LI. PHARMA S.R.L., priority 2022, published 2026)

How the values were obtained:
Hela cells = experiment: Annexin V/7-AAD staining, apoptosis in Hela cells; assay type: cell-based, human; settings: 48 hr, EGCG 50 mcg/ml, Fol 900 nM, B12 1000 nM, Hyal 10 mcg/ml, FIG. 1
Description: The combined action of epigallocatechin gallate (EGCG) and at least one the following other agents: folic acid, vitamin B12, hyaluronic acid, in respect to the single substance, has been tested in vitro in immortalized cervical cancer cell line (HeLa).
The cells were seeded in […] flasks in low glucose DMEM, to which had been added FBS (Fetal Bovine Serum) 10%, L-Glu (L-glutamine) 1%, Pen/Strep (penicillin/streptomycin) 1%. The cells were kept in an incubator at a temperature of 37° C., 5% carbon dioxide and 95% humidity and maintained in culture, as described above, until they reached 50% confluency. On the day of the experiment the cells were treated as follows: • 1. […]
Apoptosis (cell death) was evaluated after 48 hours of treatment using the Annexin V kit. The expression of onco-suppressor genes (p53 and/or pRB) and/or viral E6 and/or E7 genes was evaluated after 48 hours of treatment through use of real time PCR. […]
Hela cells were cultured at confluence into 25 cm^2 flasks (Falcon, Becton Dickinson Labware, Franklin Lakes, NJ, USA) in complete medium. […] After 48 hr of treatment, cell status was assessed through use of the FITC Annexin V Apoptosis Detection Kit I according to the instructions of the manufacturer (BD Pharmingen™). […]

cell model in vitro = settings: cited from earlier work
vaginal atrophy = settings: 12 post-menopausal women, 3-month treatment; cited from earlier work
human cervical lesions = settings: EGCG tablets (200 mg), 8-12 weeks, cited from earlier work
[1] = tested on: epithelial cervical cell line infected with high-risk HPV (TLC1 and cervical cancer lines such as Hela and Me180); settings: dose-dependent manner; cited from earlier work
p53 protein = settings: cited from earlier work
viral protein E7 = settings: cited from earlier work
[2] = cytology, colposcopy, histology, HPV DNA test

| Substance | apoptosis (cell death) compared to control (Hela cells) | process of wound healing in comparison with the control (cell model in vitro) | mucous membrane (vaginal atrophy) | symptoms related to vaginal atrophy (itching, burning, and dyspareunia) (vaginal atrophy) | treated women with improvement of general clinical status (human cervical lesions; 88 women) [%] | women with moderate lesions responding positively to the treatment (human cervical lesions; [2]) [%] | women with serious lesions responding positively to the treatment (human cervical lesions; [2]) [%] | apoptosis, i.e., cell death [1] | cellular growth [1] | level of p53 protein expression (p53 protein) | level of viral protein E7 expression (viral protein E7) |
| --- | --- | --- | --- | --- | --- | --- | --- | --- | --- | --- | --- |
| hyaluronic acid | significantly increased apoptosis | significantly accelerates the process of wound healing | restores the mucous membrane | dramatically reducing symptoms | – | – | – | – | – | – | – |
| (−)-epigallocatechin gallate [EGCG] | no differences in apoptosis levels | – | – | – | 60 | 100 | 71 | promotes apoptosis | inhibits cellular growth | increases the level of p53 protein expression | reduces that of the viral protein E7 |
